Converted amounts (≈) assume the structure as drawn. Like-named read-outs stand apart in the source and are kept apart here.
Columns and labels:
[1] = test system: Mycobacterium tuberculosis H37Rv CNCTC My 331/88 (ATCC 27294); test: Microplate Alamar Blue assay vs Mtb H37Rv; assay type: cell-based; conditions: Mycobacterium tuberculosis
[2] = test system: Candida parapsilosis CCM 8260 (ATCC 22019); test: Antifungal microdilution broth (EUCAST); assay type: cell-based; conditions: Lodderomyces parapsilosis, read-out: MIC Candida parapsilosis
[3] = test system: Trichophyton interdigitale CCM 8377 (ATCC 9533); test: Antifungal microdilution broth (EUCAST); assay type: cell-based; conditions: Trichophyton interdigitale, read-out: MIC Trichophyton interdigitale
[4] = test system: Staphylococcus aureus subsp. aureus CCM 4223 (ATCC 29213); test: Antibacterial microdilution broth (EUCAST); assay type: cell-based; conditions: read-out: MIC Staphylococcus aureus subsp. aureus
[5] = test system: Mycobacterium kansasii DSM 44,162 (ATCC 12478); test: Antimycobacterial microdilution (resazurin) vs M. kansasii; assay type: cell-based; conditions: read-out: MIC M. kansasii
[6] = test system: Pseudomonas aeruginosa CCM 3955 (ATCC 27853); test: Antibacterial microdilution broth (EUCAST); assay type: cell-based; conditions: read-out: MIC Pseudomonas aeruginosa
[7] = test system: Candida albicans CCM 8320 (ATCC 24433); test: Antifungal microdilution broth (EUCAST); assay type: cell-based; conditions: Candida albicans, read-out: MIC Candida albicans
HepG2 cell line = test: Cytotoxicity screening, CellTiter 96 assay; conditions: for IC50: Homo sapiens, HepG2, 24 h, read-out: IC50 HepG2; for toxicity to HepG2 up to highest tested concentration: tested up to 500 µM (2, 3), 250 µM (12, 17), 100 µM (6, 7, 11) because of solubility
[8] = test system: Aspergillus flavus CCM 8363; test: Antifungal microdilution broth (EUCAST); assay type: cell-based; conditions: Aspergillus flavus, CCM8363, read-out: MIC Aspergillus flavus
[9] = test system: methicillin-resistant Staphylococcus aureus subsp. aureus (MRSA) CCM 4750 (ATCC 43300); test: microbe, parasite or virus in culture; assay type: cell-based; conditions: read-out: MIC Methicillin-resistant Staphylococcus aureus subsp. aureus
[10] = test system: Candida tropicalis CCM 8264 (ATCC 750); test: Antifungal microdilution broth (EUCAST); assay type: cell-based; conditions: read-out: MIC Candida tropicalis
[11] = test system: Escherichia coli CCM 3954 (ATCC 25922); test: Antibacterial microdilution broth (EUCAST); assay type: cell-based; conditions: Escherichia coli, read-out: MIC Escherichia coli
[12] = test system: Staphylococcus epidermidis CCM 4418 (ATCC 12228); test: Antibacterial microdilution broth (EUCAST); assay type: cell-based; conditions: read-out: MIC Staphylococcus epidermidis
[13] = test system: Aspergillus fumigatus ATCC 204305; test: Antifungal microdilution broth (EUCAST); assay type: cell-based; conditions: Aspergillus fumigatus, ATCC204305, read-out: MIC Aspergillus fumigatus
[14] = test system: Candida krusei CCM 8271 (ATCC 6258); test: Antifungal microdilution broth (EUCAST); assay type: cell-based; conditions: Pichia kudriavzevii, read-out: MIC Candida krusei
[15] = test system: Klebsiella pneumoniae CCM 4415 (ATCC 10031); test: Antibacterial microdilution broth (EUCAST); assay type: cell-based; conditions: Klebsiella pneumoniae, read-out: MIC Klebsiella pneumoniae
[16] = test system: Acinetobacter baumannii DSM 30007 (ATCC 19606); test: Antibacterial microdilution broth (EUCAST); assay type: cell-based; conditions: read-out: MIC Acinetobacter baumannii
[17] = test system: Mycolicibacterium smegmatis DSM 43,465 (ATCC 607); test: Antimycobacterial microdilution (resazurin) vs M. smegmatis; assay type: cell-based; conditions: Middlebrook 7H9, resazurin, read-out: MIC M. smeg.
[18] = test system: Enterococcus faecalis CCM 4224 (ATCC 29212); test: Antibacterial microdilution broth (EUCAST); assay type: cell-based; conditions: read-out: MIC Enterococcus faecalis
[19] = test system: Lichtheimia corymbifera CCM 8077; test: Antifungal microdilution broth (EUCAST); assay type: cell-based; conditions: Lichtheimia corymbifera, CCM8077, read-out: MIC Lichtheimia corymbifera
[20] = test system: Mycolicibacterium aurum DSM 43,999 (ATCC 23366); test: Antimycobacterial microdilution (resazurin) vs M. aurum; assay type: cell-based; conditions: Middlebrook 7H9, resazurin, read-out: MIC M. aurum
[21] = test system: Mycobacterium tuberculosis H37Ra ITM-M006710 (ATCC 9431); test: Antimycobacterial microdilution (resazurin) vs Mtb H37Ra; assay type: cell-based
[22] = test system: Mycobacterium avium DSM 44,156 (ATCC 25291); test: Antimycobacterial microdilution (resazurin) vs M. avium; assay type: cell-based; conditions: Mycobacterium avium
[23] = pH 6.6, MABA, Middlebrook 7H9 pH 6.6, recalculated from µg/mL, read-out: MIC Mtb H37Rv
[24] = Middlebrook 7H9, resazurin, recalculated from µg/mL, read-out: MIC Mtb H37Ra
[25] = Middlebrook 7H9, resazurin, read-out: MIC M. avium

Structure (SMILES): O=C(Nc1ccc2c(c1)B(O)OC2)c1cnccn1 [Compound 1, N-(1-hydroxy-1,3-dihydrobenzo[c][1,2]oxaborol-6-yl)pyrazine-2-carboxamide]
- MIC [1, 23]: 49 µM (≈ 12.5 µg/mL)
- melting point: 261.3 to 262.3 °C
- MIC ([2]; 24h incubation): > 500 µM
- MIC ([2]; 48h incubation): > 500 µM
- MIC ([3]; 72h incubation): > 500 µM
- MIC ([3]; 120h incubation): > 500 µM
- MIC ([4]; 24h incubation): 250 µM (≈ 63.8 µg/mL)
- MIC ([4]; 48h incubation): 250 µM (≈ 63.8 µg/mL)
- MIC ([5]; Middlebrook 7H9, resazurin): 30.6 µM (≈ 7.81 µg/mL)
- MIC ([6]; 24h incubation): > 500 µM
- MIC ([6]; 48h incubation): > 500 µM
- MIC ([7]; 24h incubation): > 500 µM
- MIC ([7]; 48h incubation): > 500 µM
- IC50 (HepG2 cell line): > 1000 µM
- MIC ([8]; 24h incubation): > 500 µM
- MIC ([8]; 48h incubation): > 500 µM
- MIC ([9]; 24 h): 500 µM (≈ 128 µg/mL)
- MIC ([9]; 48 h): 500 µM (≈ 128 µg/mL)
- MIC ([10]; 24h incubation): > 500 µM
- MIC ([10]; 48h incubation): > 500 µM
- MIC ([11]; 24h incubation): > 500 µM
- MIC ([11]; 48h incubation): > 500 µM
- MIC ([12]; 24h incubation): 500 µM (≈ 128 µg/mL)
- MIC ([12]; 48h incubation): 500 µM (≈ 128 µg/mL)
- MIC ([13]; 24h incubation): > 500 µM
- MIC ([13]; 48h incubation): > 500 µM
- MIC ([14]; 24h incubation): > 500 µM
- MIC ([14]; 48h incubation): > 500 µM
- MIC ([15]; 24h incubation): > 500 µM
- MIC ([15]; 48h incubation): > 500 µM
- MIC ([16]; 24h incubation): > 500 µM
- MIC ([16]; 48h incubation): > 500 µM
- MIC [17]: 30.6 µM (≈ 7.81 µg/mL)
- MIC ([18]; 24h incubation): > 500 µM
- MIC ([18]; 48h incubation): > 500 µM
- MIC ([19]; 24h incubation): > 500 µM
- MIC ([19]; 48h incubation): > 500 µM
- MIC [20]: 15.3 µM (≈ 3.91 µg/mL)
- MIC [21, 24]: 123 µM (≈ 31.3 µg/mL)
- MIC [22, 25]: 123 µM (≈ 31.3 µg/mL)

Structure (SMILES): Cc1cnc(C(=O)Nc2ccc3c(c2)B(O)OC3)cn1 [Compound 2, N-(1-hydroxy-1,3-dihydrobenzo[c][1,2]oxaborol-6-yl)-5-methylpyrazine-2-carboxamide]
- MIC [1, 23]: 46.5 µM (≈ 12.5 µg/mL)
- melting point: 215 to 216.1 °C
- MIC ([2]; 24h incubation): > 500 µM
- MIC ([2]; 48h incubation): > 500 µM
- MIC ([3]; 72h incubation): > 500 µM
- MIC ([3]; 120h incubation): > 500 µM
- MIC ([4]; 24h incubation): 250 µM (≈ 67.3 µg/mL)
- MIC ([4]; 48h incubation): 250 µM (≈ 67.3 µg/mL)
- MIC [5]: 58.1 µM (≈ 15.6 µg/mL)
- MIC ([6]; 24h incubation): > 500 µM
- MIC ([6]; 48h incubation): > 500 µM
- MIC ([7]; 24h incubation): > 500 µM
- MIC ([7]; 48h incubation): > 500 µM
- IC50 (HepG2 cell line): > 500 µM
- toxicity to HepG2 up to highest tested concentration (HepG2 cell line): non-toxic
- MIC ([8]; 24h incubation): > 500 µM
- MIC ([8]; 48h incubation): > 500 µM
- MIC ([9]; 24 h): > 500 µM
- MIC ([9]; 48 h): > 500 µM
- MIC ([10]; 24h incubation): > 500 µM
- MIC ([10]; 48h incubation): > 500 µM
- MIC ([11]; 24h incubation): > 500 µM
- MIC ([11]; 48h incubation): > 500 µM
- MIC ([12]; 24h incubation): 500 µM (≈ 135 µg/mL)
- MIC ([12]; 48h incubation): 500 µM (≈ 135 µg/mL)
- MIC ([13]; 24h incubation): > 500 µM
- MIC ([13]; 48h incubation): > 500 µM
- MIC ([14]; 24h incubation): > 500 µM
- MIC ([14]; 48h incubation): > 500 µM
- MIC ([15]; 24h incubation): > 500 µM
- MIC ([15]; 48h incubation): > 500 µM
- MIC ([16]; 24h incubation): > 500 µM
- MIC ([16]; 48h incubation): > 500 µM
- MIC [17]: 29 µM (≈ 7.81 µg/mL)
- MIC ([18]; 24h incubation): > 500 µM
- MIC ([18]; 48h incubation): > 500 µM
- MIC ([19]; 24h incubation): > 500 µM
- MIC ([19]; 48h incubation): > 500 µM
- MIC [20]: 14.5 µM (≈ 3.91 µg/mL)
- MIC [21, 24]: 58.1 µM (≈ 15.6 µg/mL)
- MIC [22, 25]: 58.1 µM (≈ 15.6 µg/mL)

Structure (SMILES): Cc1nccnc1C(=O)Nc1ccc2c(c1)B(O)OC2 [Compound 3, N-(1-hydroxy-1,3-dihydrobenzo[c][1,2]oxaborol-6-yl)-3-methylpyrazine-2-carboxamide]
- MIC ([1]; pH 6.6, read-out: MIC Mtb H37Rv, MABA, Middlebrook 7H9 pH 6.6, recalculated from µg/mL): 92.9 µM (≈ 25 µg/mL)
- melting point: 262.9 to 264 °C
- MIC ([2]; 24h incubation): > 500 µM
- MIC ([2]; 48h incubation): > 500 µM
- MIC ([3]; 72h incubation): > 500 µM
- MIC ([3]; 120h incubation): > 500 µM
- MIC ([4]; 24h incubation): > 500 µM
- MIC ([4]; 48h incubation): > 500 µM
- MIC ([5]; Middlebrook 7H9, resazurin): 58.1 µM (≈ 15.6 µg/mL)
- MIC ([6]; 24h incubation): > 500 µM
- MIC ([6]; 48h incubation): > 500 µM
- MIC ([7]; 24h incubation): > 500 µM
- MIC ([7]; 48h incubation): > 500 µM
- IC50 (HepG2 cell line): > 500 µM
- toxicity to HepG2 up to highest tested concentration (HepG2 cell line): non-toxic
- MIC ([8]; 24h incubation): > 500 µM
- MIC ([8]; 48h incubation): > 500 µM
- MIC ([9]; 24 h): > 500 µM
- MIC ([9]; 48 h): > 500 µM
- MIC ([10]; 24h incubation): > 500 µM
- MIC ([10]; 48h incubation): > 500 µM
- MIC ([11]; 24h incubation): > 500 µM
- MIC ([11]; 48h incubation): > 500 µM
- MIC ([12]; 24h incubation): > 500 µM
- MIC ([12]; 48h incubation): > 500 µM
- MIC ([13]; 24h incubation): > 500 µM
- MIC ([13]; 48h incubation): > 500 µM
- MIC ([14]; 24h incubation): > 500 µM
- MIC ([14]; 48h incubation): > 500 µM
- MIC ([15]; 24h incubation): > 500 µM
- MIC ([15]; 48h incubation): > 500 µM
- MIC ([16]; 24h incubation): > 500 µM
- MIC ([16]; 48h incubation): > 500 µM
- MIC [17]: 14.5 µM (≈ 3.91 µg/mL)
- MIC ([18]; 24h incubation): > 500 µM
- MIC ([18]; 48h incubation): > 500 µM
- MIC ([19]; 24h incubation): > 500 µM
- MIC ([19]; 48h incubation): > 500 µM
- MIC [20]: 14.5 µM (≈ 3.91 µg/mL)
- MIC ([21]; read-out: MIC Mtb H37Ra, Middlebrook 7H9, resazurin, recalculated from µg/mL): > 1850 µM
- MIC ([22]; read-out: MIC M. avium, Middlebrook 7H9, resazurin): > 1850 µM

— article PMC9917560, “Design, Synthesis and Antimicrobial Evaluation of New N-(1-Hydroxy-1,3-dihydrobenzo[c][1,2]oxaborol-6-yl)(hetero)aryl-2-carboxamides as Potential Inhibitors of Mycobacterial Leucyl-tRNA Synthetase” (International Journal of Molecular Sciences, 2023)
